From US9415103B2, “Combination therapy to prevent DCIS formation and progression to breast cancer” (Yeda Research and Development Co. Ltd., priority 2011, dated 2016)

Assays:
MCF10A-HER2 spheroids = test: Morphogenesis assay in Matrigel: luminal filling and cleaved Caspase-3 staining by confocal microscopy; format: cell-based, human; conditions: spheroids grown 4 days, then 10058-F4 1 μM, FIG. 4G; for luminal filling: LY-294002 2 μM or U0126 1 μM for up to 4 additional days, day 8; for Caspase-3 activation: LY-294002 2 μM or U0126 1 μM, imaged on day 6
[1] = tested on: Notch pathway genes in MCF10A-HER2 spheroids; conditions: U0126 1 μM, up to five days, lumen-filled spheroids; FIG. 2C

Row | SMILES | luminal filling (MCF10A-HER2 spheroids) | Caspase-3 activation (MCF10A-HER2 spheroids) | transcriptional induction of the Notch pathway (qRT-PCR) [1]
1 | CCc1ccc(/C=C2/SC(=S)NC2=O)cc1 [10058-F4] | significant inhibition | markedly enhanced | –
2 | N#CC(=C(/N)Sc1ccccc1N)/C(C#N)=C(\N)Sc1ccccc1N [U0126] | significant inhibition | markedly enhanced | contributes to the transcriptional induction of the Notch pathway
